According to a melting point compilation (Tetko et al.; mined from patent text by program, amines drawn as free bases though some values may be those of a salt):

| SMILES | melting point [°C] |
| --- | --- |
| O=C(C#Cc1ccc(-c2ccc(Cl)cc2)cc1)Nc1ccc(CNCC2CCCCC2)cc1 | 205 to 210 |
| CN1C(=O)C(C(C)(C)C)NNC1=S (centres undefined) | 214 |
| CCCc1nc2c(N)nc3ccccc3c2n1CC1(O)CCOCC1 | 231 to 233 |
| Nc1c(Cl)cc(C(O)CNCCCCCCOCCCCCCc2cnccn2)cc1Cl (centres undefined) | 60 to 63 |
| COc1cc2c(c(Cl)c1Cl)C(=O)C(CCCCl)C2 (centres undefined) | 130 to 132 |
| Nc1nc(N)nc(-c2ccc(-c3ccc(F)cc3)cc2)n1 | > 260 |
| N#CC(CCSC(F)(F)F)S(=O)CCC(F)(F)C(F)(F)F (centres undefined) | 41 to 43 |
| CC1(C)CCC(C)(C)c2cc(-c3cc4ccc(C(=O)O)cc4o3)ccc21 | 280 |
| Cc1csc2c(Br)cc3cc(C(=O)O)[nH]c3c12 | 229 to 241 |
| COc1ccc(N2CCN(Cc3coc4ccccc34)CC2)cc1 | 110 to 112 |
| c1cc2cc(-c3cnc(O[C@H]4CCN5CCC[C@@H]4C5)nc3)ccc2[nH]1 | 195 to 199 |
| CCCCn1cc(-c2nnnn2C)c(=O)c2ccccc21 | 100 to 105 |
| CCCn1nc(C(C)(F)F)nc1Cc1ccc(-c2ccccc2-c2nnn[nH]2)nc1 | 200 |
| CCCCCCCCCCCCCCCCCC(=O)Oc1nc2c(N)ncnc2n1Cc1ccccc1 | 128 to 129 |
| Cc1cc(Cl)cc(C(=O)NC(C)CSC[Si](C)(C)C)c1NC(=O)c1cc(Br)nn1-c1ncccc1Cl (centres undefined) | 151 to 153 |
| C=COC(=O)N1CC2C(=O)C=CC(c3ccccc3)(c3ccccc3)C2C1 (centres undefined) | 162 |
| CCCCCCNc1ncnc2c1ncn2C1CC(F)C(CO)O1 (centres undefined) | 83 |
| CC12CC3OC3CC1CCC1C2CCC2(C)C(O)C(N3CCCC3)CC12 (centres undefined) | 156 to 160 |
| O=C1NCN(c2ccc(Cl)cc2)C12CCN(Cc1ccnc(-c3ccc(Cl)cc3)c1)CC2 | 223 to 225 |
| Oc1cccc(-n2nc(-c3ccccc3)c3cccnc32)c1 | 142 to 144 |
| CN(C)CCOC(=O)c1ccc(CCN2CC=C(c3c[nH]c(-c4ccc(F)cc4)c3-c3ccncc3)CC2)cc1 | 178 to 181 |
| O=S(=O)(c1ccc(N2CCCCCC2)cc1)N1CCCC1=S | 172 to 173 |
| O=[N+]([O-])N=c1ccccn1Cc1ccc(Cl)nc1 | 209 to 212 |
| CNC(=S)N(C)c1ccc(Cl)nc1 | 87.5 to 88 |
| C=CC1CC1(C(C)=O)C(=O)Nc1ccccc1 (centres undefined) | 104 to 105 |
| O=c1ccoc(C(O)c2ccccc2F)c1OCc1ccccc1 (centres undefined) | 116 |

| SMILES | melting point [°C] |
| --- | --- |
| NC(=O)c1ccc2ccn(C3CCN(CCc4ccc(F)cc4)CC3)c2c1 | 238 to 240 |
| CS(=O)(=O)Nc1ccc(Cl)c([N+](=O)[O-])c1 | 163 |
| Oc1cc(O)cc(Oc2nnn[nH]2)c1 | 191 to 193 |
| CCCc1nnc2c(N(CC)CC)nc3ccccc3n12 | 92 to 94 |
| CCCCCCCCCCCCCCCCCCCCCC(=O)Nc1ccn(C2OC(CO)C(O)C2O)c(=O)n1 (centres undefined) | 141 to 143 |
| CC#CCOc1ccc(S(=O)(=O)N(C)C(C(=O)NO)c2ccc(OCCCNS(C)(=O)=O)cc2)cc1 (centres undefined) | 65 to 70 |
| COc1c(N2C[C@H]3[C@@H](F)CC[C@@]3(N)C2)c(F)cc2c(=O)c(C(=O)O)cn([C@@H]3C[C@@H]3F)c12 | 117 to 119 |
| Cc1nc2c(N)nc3ccccc3c2n1CCOCCN1CCCS1(=O)=O | 186 to 187 |
| NCCCCCCCCO | 48 to 53 |
| C[C@@H]1CN(CC=CC(=O)Nc2cc3c(Nc4ccc(F)c(Cl)c4)ncnc3cc2O[C@@H]2CCOC2)CC(=O)O1 | 230 |
| NC(=O)c1ncn2c1[C@@H]1CCCN1C(=O)c1c-2ccc(F)c1F | 221 to 224 |
| CC(O)CN1CCCC(c2cccs2)=N1 (centres undefined) | 74 to 77 |
| CCCSc1nc(N)n(-c2nnc(-c3ccccc3O)s2)n1 | 195 to 198 |
| O=c1c2cc(F)ccc2[nH]c(=S)n1-c1ccccc1Cl | 295 to 297 |
| O=CNc1cc(-c2ccc(Cl)cc2)n[nH]1 | 151 |
| COc1ccc(-c2cnc(N)c(Br)n2)cc1 | 166 to 170 |
| Cn1ncc2c(=O)n3c(nc21)SCC3(C)C | 188 |
| NC(=O)OCC(OC(N)=O)c1ccccc1Cl (centres undefined) | 167 to 169 |
| COCOc1ccc([N+](=O)[O-])c(C=O)c1 | 68 to 69 |
| CCCn1c(C)nn(-c2ccc(N)cc2)c1=O | 139 |
| CN1CC(CCN2CCN(c3ccc(F)cc3)CC2)OC1=O (centres undefined) | 82 to 84 |
| CC(=O)NCc1ccc(CN2CCN(c3nccc(N(C)C)n3)CC2)cc1 | 152 to 155 |
| CSc1nc(C)ccc1NC(=O)CCCCCCCCSc1nc2ccccc2[nH]1 | 73 to 75 |
| CNC(C)=Nc1ccc(-c2c[nH]cn2)cc1 | 226 to 227 |
| CC(=O)Nc1c(C(O)(C(F)(F)F)C(F)(F)F)cc(Cl)c2ccccc12 | 161 to 162 |
| Cc1nc2ncnn2c2c1CCN2CC(C)C | 143 to 145 |

Now from value to compound:

| melting point [°C] | SMILES |
| --- | --- |
| 202 | CC(=O)Nc1cc(C)cc(CCC(=O)O)n1 |
| > 270 | CCc1nc2c(N)nc3cc(-c4cnc5ccccc5c4)cnc3c2n1CC(C)(C)O |
| 125 to 126 | CCOC(=O)[C@H](Cc1ccc(-c2c(OC)cc(COS(C)(=O)=O)cc2OC)cc1)NC(=O)c1c(F)cccc1F |
| 148 to 151 | CN[C@H]1CCN(c2c(-c3ccccc3)c(C)c(C#N)c3nc(C(=O)N(C)C)oc23)C1 |
| 218 to 220 | O=C(Nc1ccc(C(=O)N2Cc3cccn3Cc3ccccc32)cc1)c1cc(Cl)ccc1Cl |
| 184 to 186 | CCCCNN1C=c2cc(-c3c(Cl)cccc3Cl)c(=O)n(C)c2=NC1 |
| 123 to 126 | Cc1ccccc1C(=O)N1CCc2nnc(Cl)cc2C1 |
| 79 to 81 | CCCCOC(=O)c1ccccc1SN(C(=O)NC(=O)c1c(F)cccc1F)c1ccc(C(F)(F)F)cc1 |
| 260 to 262 | CC(=O)Nc1ccc2ncnc(Nc3cccc(Cl)c3)c2c1 |
| 101 to 104 | CC1(C)COC(Cc2ccc3c(c2)C(=O)c2ccccc2CO3)=N1 |
| 61 to 63 | CCOC(=O)CCc1oc2cccc(O)c2c1C |
| 161 to 162 | CSc1ccc(CSc2cccc(C(=O)Nc3ccc(C#N)cn3)c2)cc1 |
| 187 to 188 | Cc1c(C(=O)c2cnn(C(C)(C)C)c2O)ccc(S(C)(=O)=O)c1-c1ccc(S(C)(=O)=O)cc1 |
| 166 | CONC(=O)c1ccccc1NC(=O)Cc1cccc(Br)c1 |
| 130 | C=CCc1cc(CC(=O)O)ccc1OCc1ccc2ccccc2n1 |
| 160 to 161 | COc1ccc(CN2C(=O)C(Oc3ccccc3)C2c2ccc(C(=O)O)cc2)cc1OC (centres undefined) |
| 110 to 114 | CCOC(=O)C(=CNc1csnn1)C(=O)c1cc(F)c(Cl)nc1Cl |
| 114 to 115 | CCOC(=O)C(C)(C)NC(=O)c1cccc(C2=NC(C)(C)Cc3cc(OC)c4c(c32)CC(C)(C)O4)c1 |
| 225 | CN(C)S(=O)(=O)c1cccc(-c2cc(-c3nc(-c4ccc(C(F)(F)F)cc4)cc(C(F)(F)F)n3)ccn2)c1 |
| 163 to 164 | Cc1ccc(Sc2cc(C(C)(C)C)c(O)c(C(=O)O)c2C)cc1 |
| 228 | COc1ccc(Cl)cc1C(=O)NC1Cc2cc(S(N)(=O)=O)c(OC)cc2OC1(C)C (centres undefined) |
| 214 to 217 | COc1ccc2cc(C(C)=CC(=O)O)cc(F)c2c1 |
| 253 to 254 | O=C(O)c1cc(OCc2ccc(Cl)cc2)c(C(=O)c2ccccc2)c([N+](=O)[O-])c1 |
| 168 to 170 | COc1ccc(C(=O)Nc2ccccc2)cc1NCc1cc(C)cc(C)c1 |

| melting point [°C] | SMILES |
| --- | --- |
| 149 | C=CCOc1ccc(-c2ccc(C(=O)OC)cc2)cc1 |
| 154 | Cc1oc(-c2ccccc2)nc1CCOc1ccc(C=O)c2sccc12 |
| 127 to 128 | COc1ccc(N2CCN(c3c(C)c(C)c4c(c3C)C(N3CCCCCC3)C(C)(C)O4)CC2)cc1 (centres undefined) |
| 220 to 222 | CC(C)c1cc(C=CC(=O)Nc2cccc(C(=O)O)c2)oc1C(C)C |
| 147 | CC(C)(C=O)C(O)(COc1cccc2ccccc12)Cn1ccnc1 (centres undefined) |
| 92 to 94 | CCOC(=O)c1c(-c2ccc(F)cc2)c(-c2ccc(F)cc2)c(C=O)n1C(C)C |
| 138 to 140 | CC(C)(C)c1cc(SCN2C(=O)CC(Sc3cc(C(C)(C)C)c(O)c(C(C)(C)C)c3)C2=O)cc(C(C)(C)C)c1O (centres undefined) |
| 101 to 103 | CCNC(=O)c1c(Cl)cc(Cl)cc1[Si](C)(C)C |
| 54 to 56 | CC(COc1ccc(CC2SC(=O)NC2=O)cc1)N1CC(COc2ccccc2)OC1=O (centres undefined) |
| 235 to 237 | Cc1cc(-c2nnc3c4ccccc4c(OCn4cccn4)nn23)no1 |
| 140 to 141 | CC=Cc1c(NC(=O)C(F)(F)F)ccc2c(=O)cc(C(=O)OCC)oc12 |
| 192 to 194 | CC=NOCc1nc2c(N)nc(C)c(C)c2n1CCCCNC(=O)c1ccccc1 |
| 80 to 83 | CCN1C(c2ccccc2C(=O)c2ccccc2)=N[C@@H]2CCCC[C@H]21 (relative stereo) |
| 98 to 99 | CC(C)n1c(CCC2C[C@@H](O)CC(=O)O2)c(-c2ccc(F)cc2)c(-c2ccccc2)c1C(=O)Nc1ccc(F)cc1 (some centres undefined) |
| 91.7 | CCOC(=O)N1CCC(C(=O)c2ccc(F)cc2)(c2ccccc2)CC1 |
| 194 to 196 | CCn1ncc2nc(C(=O)Nc3nccs3)c(-c3ccccc3)nc21 |
| 114 to 116 | Cc1c(C)c2c(c(C)c1O)CCC(C)(COc1ccc([N+](=O)[O-])cc1)O2 (centres undefined) |
| 94 to 95 | CCOc1ccc(-c2nc(C=Cc3ccccc3)cs2)cc1OCC |
| 263 to 264 | CCn1nc(-c2ccccc2)c(C(C)=O)c(Nc2cccc3cn[nH]c23)c1=O |
| 163 to 166 | CCOC(=O)c1cc(C(=O)Nc2ccccc2OC(C)=O)cc(Cl)c1O |
| > 270 | CCn1c(=O)c2[nH]c(/C=C/c3cccc(C(F)(F)F)c3)nc2n(CC)c1=O |
| 160 to 162 | COC(=O)c1cc(O)c2cc[nH]c2c1 |
| 78 | CNC(=S)NS(=O)(=O)c1cc(CCNC(=O)C=Cc2cccs2)ccc1OCC1CCCO1 (centres undefined) |
